Results published in PubChem BioAssay (NCI).
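Cells were grown in 96-well plates and exposed to each compound for 48 hours at five concentrations; endpoints were interpolated linearly between bracketing concentrations, or set to the highest concentration if not reached. TGI is the concentration that stops growth completely.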

Experiments:
Experiment in all cases: inhibition of tumour cell growth, NCI panel, 48 h
[1] = system: UACC-257 melanoma
[2] = system: COLO 205 colon
[3] = system: KM12 colon
[4] = system: SK-MEL-28 melanoma
[5] = system: LXFL 529 NSCLC
[6] = system: M19-MEL melanoma
[7] = system: HOP-92 NSCLC
[8] = system: SK-MEL-2 melanoma
[9] = system: A549 NSCLC
[10] = system: UACC-62 melanoma
[11] = system: HT29 colon
[12] = system: OVCAR-8 ovarian
[13] = system: CCRF-CEM leukemia
[14] = system: EKVX NSCLC
[15] = system: U251 CNS
[16] = system: OVCAR-3 ovarian
[17] = system: SNB-19 CNS
[18] = system: RPMI-8226 leukemia
[19] = system: LOX IMVI melanoma
[20] = system: HOP-62 NSCLC
[21] = system: SF-295 CNS
[22] = system: M14 melanoma
[23] = system: KM20L2 colon
[24] = system: HL-60(TB) leukemia
[25] = system: SK-MEL-5 melanoma
[26] = system: OVCAR-5 ovarian
[27] = system: HCT-116 colon
[28] = system: SN12C renal
[29] = system: MALME-3M melanoma
[30] = system: MOLT-4 leukemia
[31] = system: RXF 393 renal
[32] = system: TK-10 renal
[33] = system: UO-31 renal
[34] = system: HCC-2998 colon
[35] = system: NCI-H23 lung
[36] = system: DLD-1 colon
[37] = system: 786-0 renal
[38] = system: SNB-78 CNS
[39] = system: IGROV1 ovarian
[40] = system: SW-620 colon
[41] = system: NCI-H460 lung
[42] = system: NCI-H226 lung
[43] = system: SF-268 CNS
[44] = system: ACHN renal
[45] = system: SNB-75 CNS
[46] = system: OVCAR-4 ovarian
[47] = system: CAKI-1 renal
[48] = system: A498 renal
[49] = system: SF-539 CNS
[50] = system: NCI-H522 lung
[51] = system: MDA-MB-231 breast
[52] = system: NCI/ADR-RES ovarian
[53] = system: SK-OV-3 ovarian
[54] = system: HS 578T breast
[55] = system: HCT-15 colon
[56] = system: DU-145 prostate
[57] = system: K-562 leukemia
[58] = system: MDA-N
[59] = system: MCF7 breast
[60] = system: T-47D breast
[61] = system: PC-3 prostate
[62] = system: BT-549 breast
[63] = system: MDA-MB-435

SMILES: CCCCCCC(=O)C/C(=N/NC(N)=S)C(=O)NC1C2CC3CC(C2)CC1C3 (centres undefined)
- TGI [1]: > 100 µM
- TGI [2]: > 100 µM
- TGI [3]: > 100 µM
- TGI [4]: > 100 µM
- TGI [5]: > 100 µM
- TGI [6]: > 100 µM
- TGI [7]: > 100 µM
- TGI [8]: > 100 µM
- TGI [9]: > 100 µM
- TGI [10]: > 100 µM
- TGI [11]: > 100 µM
- TGI [12]: > 100 µM
- TGI [13]: > 100 µM
- TGI [14]: > 100 µM
- TGI [15]: > 100 µM
- TGI [16]: > 100 µM
- TGI [17]: > 100 µM
- TGI [18]: > 100 µM
- TGI [19]: > 100 µM
- TGI [20]: > 100 µM
- TGI [21]: > 100 µM
- TGI [22]: > 100 µM
- TGI [23]: > 100 µM
- TGI [24]: > 100 µM
- TGI [25]: > 100 µM
- TGI [26]: > 100 µM
- TGI [27]: > 100 µM
- TGI [28]: > 100 µM
- TGI [29]: > 100 µM
- TGI [30]: > 100 µM
- TGI [31]: > 100 µM
- TGI [32]: > 100 µM
- TGI [33]: > 100 µM
- TGI [34]: > 100 µM
- TGI [35]: > 100 µM
- TGI [36]: > 100 µM
- TGI [37]: > 100 µM
- TGI [38]: > 100 µM
- TGI [39]: > 100 µM
- TGI [40]: > 100 µM
- TGI [41]: > 100 µM
- TGI [42]: > 100 µM
- TGI [43]: > 100 µM
- TGI [44]: > 100 µM
- TGI [45]: > 100 µM
- TGI [46]: > 100 µM

SMILES: N#Cc1c(Cl)c2cc([N+](=O)[O-])ccc2n2c1nc1ccccc12
- TGI [47]: 4.78 µM
- TGI [1]: 56 µM
- TGI [2]: 4.67 µM
- TGI [3]: 42.8 µM
- TGI [4]: 30 µM
- TGI [48]: > 55.6 µM
- TGI [8]: 36.4 µM
- TGI [9]: > 100 µM
- TGI [49]: 4.28 µM
- TGI [50]: 4.71 µM
- TGI [51]: 0.858 µM
- TGI [10]: 35.4 µM
- TGI [11]: 18.4 µM
- TGI [12]: 10.6 µM
- TGI [52]: 28 µM
- TGI [53]: 54.5 µM
- TGI [54]: 18 µM
- TGI [13]: 4.27 µM
- TGI [55]: 2.3 µM
- TGI [14]: 34.2 µM
- TGI [15]: > 100 µM
- TGI [56]: 18.4 µM
- TGI [16]: 29.6 µM
- TGI [17]: 20.3 µM
- TGI [18]: > 22.5 µM
- TGI [19]: 3.05 µM
- TGI [20]: 47.4 µM
- TGI [21]: 62.4 µM
- TGI [57]: > 36.7 µM
- TGI [22]: 4.41 µM
- TGI [24]: 0.58 µM
- TGI [58]: > 100 µM
- TGI [25]: 44.4 µM
- TGI [26]: 16.5 µM
- TGI [27]: > 100 µM
- TGI [28]: > 100 µM
- TGI [29]: 24.1 µM
- TGI [59]: 4.56 µM
- TGI [31]: 5.39 µM
- TGI [60]: 4.8 µM
- TGI [32]: 8.95 µM
- TGI [33]: 6.82 µM
- TGI [34]: 19.4 µM
- TGI [35]: 35.8 µM
- TGI [61]: 12.5 µM
- TGI [41]: 38.5 µM
- TGI [62]: 34.4 µM
- TGI [42]: 34.3 µM
- TGI [43]: 13.6 µM
- TGI [44]: 13.6 µM
- TGI [45]: 24.6 µM
- TGI [46]: 3.58 µM
- TGI [63]: 4.65 µM
